The values that follow are results of earlier work, collected in patent US20140370105A1, “TREATMENT OF INFLAMMATORY BOWEL DISEASE WITH 6-MERCAPTOPURINE” (Teva Pharmaceutical Industries, Ltd., priority 2008, published 2014).

The series concerns inflammatory bowel disease. As to conditions: conventional therapy.

`Sc1ncnc2nc[nH]c12` [6-MP, 6-mercaptopurine]: the “time required to be effective / show effect” value (IBD / Crohn's disease patients) is 3-4 months. Further, the “time required to show any benefit” value (IBD patients) is given as “at least 12 weeks”.
